# How the values were obtained:
# [1] = test system: 2D rat Pre-adipocytes (rat mesenchymal stem cells); assay: Adipogenic potential ranking in 2D tissue culture, rat pre-adipocytes; type: cell-based; conditions: ranked on a scale of 0-5 with 5 representing the highest possible score
# Description: Examples of the adipogenic effects of RHAMM antagonists (peptide B (SEQ ID NO: 2), peptide P15-1 (SEQ ID NO. 1), and the antibody to peptide B) are summarized in Table 1. Peptide P15-1, peptide B, and a RHAMM antibody were assayed for their effects on pre-adipocyte stem cells in culture and when injected into the dermis of aged rats. Reagents were ranked on a scale of 0-5 with 5 representing the highest possible score and a completely filled in Harvey ball. “2D” refers to two-dimensional tissue culture.
# [2] = test system: mesenchymal stem cells or papillary fibroblasts; assay: Adipogenesis by RHAMM antagonists in tissue culture and in vivo (summary statements)
# Excerpt: (§1) We hypothesized that the fragment and the antibody were blocking RHAMM function by competitive inhibition and by direct binding/blocking of RHAMM, respectively. Using truncation analyses, the size of the peptide was further reduced to 32 amino acids ([…] (SEQ ID NO: 92)) and it was shown that adipogenic activity is localized to a 15 amino acid peptide (KLKDENSQLKSEVSK (SEQ ID NO: 2); “peptide B” or “B-1” herein) shown in FIG. 2. This peptide was chemically synthesized to use as a competitive blocker, and antibodies were prepared against this sequence tagged with keyhold lymphocyte hemacyanin (KLH) to directly bind/block RHAMM function.
# The RHAMM sequence that contains adipogenic activity also contains the hyaluronan binding region of this protein.
# All of these reagents can replace insulin in their ability to promote adipogenesis in mesenchymal stem cells or papillary fibroblasts.
# [3] = test system: nude guinea pigs; assay: Subcutaneous fat deposition in nude guinea pigs; type: in vivo, guinea pig; conditions: injection on upper back and in ear fat pad; control collagen gel vehicle only
# Description: Peptide B (SEQ ID NO: 2) was also tested for its effect in nude guinea pigs since their skin structure resembles human facial skin. In particular, the skin of this animal model is more similar to human skin than is rat skin, in that it is hairless and the keratinocyte layer is thicker than in the rat model. […] Thus, peptide B was effective in promoting adipogenesis in this nude guinea pig model.
# [4] = test system: RHAMM; assay: Blocking of RHAMM function; conditions: competitive blocker / direct binding
# Excerpt: as §1
# [5] = test system: Female Fisher retired breeder rats; assay: In vivo adipogenic activity in female retired breeder rat model; conditions: 100 μg subcutaneous in 1 ml collagen vehicle; 7 days
# Description: The adipogenic activity of the KSEVSK 6-mer (SEQ ID NO: 3) was also evaluated in vivo in a female retired breeder rat model. Female Fisher retired breeder rats (>9 months old) were used in these studies. The rats were injected subcutaneously with a 100 μg dose of the KSEVSK 6-mer peptide in 1 ml of a collagen vehicle or with collagen vehicle alone. The collagen vehicle contained 1 mg/ml of rat tail Type I collagen. […] Rats were injected with KSEVSK 6-mer peptide and collagen vehicle at sites A and C and with collagen vehicle only at sites B and D. Animals were maintained on a regular diet for 7 days and then euthanized Skin was harvested by cutting around the injected area, ensuring that underlying adipose tissue was retained with the skin at the injection sites. The tissue was then photographed and fat accumulation was assessed.
Substance,"adipogenic potential, 2D rat Pre-adipocytes (rat mesenchymal stem cells) [1]",adipogenesis in tissue culture and in vivo [2],adipogenicity relative to the other reagents of Table 1 [2],subcutaneous fat deposition (H and E staining) [3],RHAMM function [4],fat pad surface area vs collagen vehicle alone [5]
KLKDENSQLKSEVSK [peptide B],5,promote adipogenesis in tissue culture and in vivo,the most adipogenic of these reagents,increase in subcutaneous fat deposition,effectively block RHAMM function,
KSEVSK [KSEVSK 6-mer],,,,,,significantly larger
